Measurements published in ChEMBL document CHEMBL3045333, “Asymmetric aza-Michael additions of 4-nitrophthalimide to nitroalkenes and preliminary study of the products for herbicidal activities” (2013).

How the values were obtained:
Type in all cases: functional
[1] = system: Echinochloa crus-galli; test: Herbicidal activity against Echinochloa crus-galli (barnyard grass) assessed as reduction of radical growth in dark conditions at 10 ug/ml treated twice; details: for inhibition of growth at 10 µg/mL: Echinochloa crus-galli, read-out: GI
[2] = system: Echinochloa crus-galli; test: Herbicidal activity against Echinochloa crus-galli (barnyard grass) assessed as reduction of seedling height growth in light conditions at 10 ug/ml treated twice; details: read-out: GI
[3] = system: Echinochloa crus-galli; test: Herbicidal activity against Echinochloa crus-galli (barnyard grass) assessed as reduction of seedling height growth in light conditions at 100 ug/ml treated twice; details: for inhibition of growth at 100 µg/mL: Echinochloa crus-galli, read-out: GI
[4] = system: Echinochloa crus-galli; test: Herbicidal activity against Echinochloa crus-galli (barnyard grass) assessed as reduction of radical growth in dark conditions at 100 ug/ml treated twice; details: for inhibition of growth at 100 µg/mL: Echinochloa crus-galli, read-out: GI

SMILES: O=C1c2ccc([N+](=O)[O-])cc2C(=O)C1C(C[N+](=O)[O-])c1cccc(Cl)c1 (centres undefined)
- inhibition of growth at 10 µg/mL [1]: 0%
- inhibition of growth at 10 µg/mL [2]: 0%
- inhibition of growth at 100 µg/mL [3]: 0%
- inhibition of growth at 100 µg/mL [4]: 0%

SMILES: O=C1c2ccc([N+](=O)[O-])cc2C(=O)C1C(C[N+](=O)[O-])c1ccc(Cl)cc1Cl (centres undefined)
- inhibition of growth at 10 µg/mL [1]: 5%
- inhibition of growth at 10 µg/mL [2]: 0%
- inhibition of growth at 100 µg/mL [3]: 0%
- inhibition of growth at 100 µg/mL [4]: 10%

SMILES: O=C1c2ccc([N+](=O)[O-])cc2C(=O)C1C(C[N+](=O)[O-])c1ccccc1Cl (centres undefined)
- inhibition of growth at 10 µg/mL [1]: 0%
- inhibition of growth at 10 µg/mL [2]: 0%
- inhibition of growth at 100 µg/mL [3]: 93.2%
- inhibition of growth at 100 µg/mL [4]: 59.6%

SMILES: O=C1c2ccc([N+](=O)[O-])cc2C(=O)C1C(C[N+](=O)[O-])c1ccc(F)cc1 (racemic)
- inhibition of growth at 10 µg/mL [1]: 0%
- growth inhibition (GI) [3]: 64.1%
- inhibition of growth at 100 µg/mL [4]: 0%

SMILES: O=C1c2ccc([N+](=O)[O-])cc2C(=O)C1C(C[N+](=O)[O-])c1ccc(Cl)cc1 (stereo in doubt; 4be)
- growth inhibition (GI) [1]: 0%
- inhibition of growth at 10 µg/mL [2]: 0%
- growth inhibition (GI) [3]: 9.7%
- growth inhibition (GI) [4]: 5%

SMILES: O=C1c2ccc([N+](=O)[O-])cc2C(=O)C1C(C[N+](=O)[O-])c1ccc(F)cc1 (stereo in doubt; 4bd)
- inhibition of growth at 10 µg/mL [2]: 0%
- growth inhibition (GI) [3]: 22%

SMILES: O=C1c2ccc([N+](=O)[O-])cc2C(=O)C1C(C[N+](=O)[O-])c1ccc(Cl)cc1 (racemic)
- growth inhibition (GI) [1]: 5%
- growth inhibition (GI) [3]: 55.5%
- inhibition of growth at 100 µg/mL [4]: 10%
